BindingDB's records for doi:10.1016/j.chembiol.2016.12.011 (Saarland University, 2017)

Target: Ezrin (Homo sapiens, UniProt P15311)
Experiment: SPR Assay
Conditions: pH 5.5; 25 °C
Experimental: Recombinant ezrin (Hypermol) was diluted to […] in sodium acetate buffer (pH 5.5, 10 mM) immobilized for 350 s on a CM5 Sensor Chip (Biacore) by standard amine coupling to yield around 10,000 response units. The reference flow cell was prepared exactly as the ligand flow cell, although sodium acetate buffer only (pH 5.5, 10 mM) was used instead of recombinant ezrin. Binding interactions were monitored at 25 °C with a flow rate of […] in HBSEP/1% DMSO as running buffer. Disorazole A was injected at […]. Disorazole Z was injected at […]. The contact time for each compound was 120 s and the dissociation time 500 s. To rule out non-specific binding, a negative control protein was immobilized on a CM5 Sensor Chip (Biacore) by standard amine coupling: BSA (Sigma) was diluted to […] in sodium acetate buffer (pH 4.5, 10 mM) and immobilized for 90 s to yield around 5,000 response units. The reference flow cell was prepared with sodium acetate buffer (pH 4.5).

Chain of Ezrin (P15311 whole entry): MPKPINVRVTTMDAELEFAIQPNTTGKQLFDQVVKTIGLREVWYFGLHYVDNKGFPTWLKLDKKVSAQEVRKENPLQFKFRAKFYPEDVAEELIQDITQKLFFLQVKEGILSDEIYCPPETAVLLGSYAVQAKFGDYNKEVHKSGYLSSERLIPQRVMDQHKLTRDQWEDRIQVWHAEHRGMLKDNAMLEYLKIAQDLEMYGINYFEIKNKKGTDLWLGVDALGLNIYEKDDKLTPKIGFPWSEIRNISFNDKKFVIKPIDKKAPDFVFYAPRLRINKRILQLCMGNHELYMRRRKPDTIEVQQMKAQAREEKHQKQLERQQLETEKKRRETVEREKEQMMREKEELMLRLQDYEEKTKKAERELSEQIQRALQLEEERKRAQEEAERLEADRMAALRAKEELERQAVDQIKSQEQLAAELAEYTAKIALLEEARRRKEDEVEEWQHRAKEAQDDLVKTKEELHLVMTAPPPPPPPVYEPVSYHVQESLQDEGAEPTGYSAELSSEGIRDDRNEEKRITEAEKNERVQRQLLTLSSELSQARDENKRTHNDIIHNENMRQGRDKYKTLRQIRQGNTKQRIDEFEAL

Compound	Kd [µM]
C/C=C/[C@H](O)C(C)(C(=O)OC)[C@@H]1C\C=C/C=C/C=C/c2nc(co2)C(=O)O[C@H](C(C)(C(=O)OC)[C@@H](O)/C=C/C)C\C=C/C=C/C=C/c2nc(co2)C(=O)O1 (some centres not stated) [Disorazole Z]	74.9
C/C=C/[C@H](O)C(C)(C)[C@@H]1CCC[C@H]2O[C@H]2CC[C@@H]2O[C@@H]2c2nc(co2)C(=O)O[C@H](C(C)(C)[C@@H](O)/C=C/C)C\C=C/C(C)=C\C=C/[C@H](OC)Cc2nc(co2)C(=O)O1 [Disorazole A]	22
